{
  "source": "patent US20090325913A1",
  "about": "“Treatment of pain using satraplatin” (priority 2006, published 2009)",
  "key": {"[1]": {"test_system": "prostate cancer cell lines PC-3, DU 145 and LNCaP", "conditions": "cited from earlier work"}, "[2]": {"test_system": "patients with metastatic prostatic carcinoma", "conditions": "single agent; cited from earlier work"}, "[3]": {"test_system": "mismatch repair-proficient and mismatch repair-deficient cell lines", "conditions": "cited from earlier work"}, "[4]": {"test_system": "human tumor cell lines with different sensitivities to cisplatin", "conditions": "at equimolar basis; cited from earlier work"}, "[5]": {"test_system": "CYP enzymes (cytochrome P450 system)", "test": "Inhibition of CYP enzymes", "assay_type": "in vitro ADME", "description": "This may result in increased toxicity of certain drugs (see Appendix 5). Patients will be monitored closely for drug interactions or adverse reactions to concomitant medications. Investigators are cautioned to adjust concomitant medication dosages appropriately."}, "human lung cancer cells": {"test_system": "human lung cancer cells", "conditions": "cited from earlier work"}},
  "data": [
    {"compound": "N.NC1CCCCC1.[Cl-].[Cl-].[Pt+2]", "note": "[JM118, reference compound]", "values": [
      {"measurement": "effect of treatment on prostate cancer cells", "setting": "[1]", "value": "tumor cell kill"}
    ]},
    {"compound": "N.N.[Cl][Pt][Cl]", "note": "[cisplatin]", "values": [
      {"measurement": "efficacy", "setting": "[2]", "value": "not effective"}
    ]},
    {"compound": "CC(=O)[O][Pt]([NH2])([Cl])([Cl])([NH]C1CCCCC1)[O]C(C)=O", "note": "[satraplatin, bis(acetato)ammine dichloro(cyclohexylamine)platinum (IV)]", "values": [
      {"measurement": "difference in sensitivity between mismatch repair-proficient and -deficient cell lines", "setting": "[3]", "value": "no difference in sensitivity"},
      {"measurement": "levels of platinum-DNA adducts compared to cisplatin", "setting": "[4]", "value": "lower levels of platinum-DNA adducts"},
      {"measurement": "effect of treatment on prostate cancer cells", "setting": "[1]", "value": "tumor cell kill"},
      {"measurement": "sensitivity of androgen-insensitive PC-3 and DU 145 vs androgen-sensitive LNCaP", "setting": "[1]", "value": "more sensitive"},
      {"measurement": "inhibition of CYP enzymes", "setting": "[5]", "value": "strong inhibitor"},
      {"measurement": "effect on radiation response", "setting": "human lung cancer cells", "value": "can potentiate the effects of radiation"}
    ]}
  ]
}
